Values quoted from earlier work in US20080248135A1, “Combination Therapy for Otitis with Antiseptic and pH Adjustment” (Collegium Pharmaceutical, Inc., priority 2006, published 2008).

Experiments:
Aspergillus = conditions: antifungal creams; background statement
P. aeruginosa = conditions: background statement

**Q.** Which “Effectiveness against Aspergillus” value (Aspergillus) does the source give for `C[C@@H]1[C@H](O)[C@@H](C)/C=C/C=C/CC/C=C/C=C/C=C/C=C/C(O[C@H]2O[C@H](C)[C@@H](O)[C@H](N)[C@@H]2O)CC2O[C@](O)(CC(O)C(O)CCC(O)CC(O)CC(O)CC(=O)O[C@H]1C)CC(O)C2C(=O)O` (stereo partly shown) [nystatin] here?
**A.** not effective

**Q.** With trimethoprim-sulfamethoxazole as the compound, how does the “Activity against P. aeruginosa” value (P. aeruginosa) read?
**A.** no activity

**Q.** Which “Activity against P. aeruginosa” value (P. aeruginosa) does the source give for `CC1=C(C(=O)O)N2C(=O)[C@@H](NC(=O)[C@H](N)c3ccccc3)[C@H]2SC1` [cephalexin] here?
**A.** no activity

**Q.** For `II` [iodine, elemental iodine (I2)], which “Saturating concentration of iodine in water” value is on record?
**A.** ca. 0.0013 M

**Q.** Which “Activity against P. aeruginosa” value (P. aeruginosa) does the source give for `CC1(C)S[C@@H]2[C@H](NC(=O)[C@H](N)c3ccccc3)C(=O)N2[C@H]1C(=O)O` [ampicillin] here?
**A.** no activity

**Q.** Which “Activity against P. aeruginosa” value (P. aeruginosa) does the source give for `N[C@@H](C(=O)N[C@@H]1C(=O)N2C(C(=O)O)=C(Cl)CS[C@H]12)c1ccccc1` [cefaclor] here?
**A.** no activity

**Q.** For `Clc1ccccc1C(c1ccccc1)(c1ccccc1)n1ccnc1` [clotrimazole], which “Effectiveness against Aspergillus” value (Aspergillus) is on record?
**A.** not effective
